20 molecules from US10030016B2 (Sunesis Pharmaceuticals, Inc., priority 2009, dated 2018) can be followed below.

One assay deals with PDK1 (Homo sapiens (Human), UniProt O15530). Description: PDK1 kinase assay (coupled PDK1/AKT/FAM-crosstide assay, IMAP fluorescence polarization). It counts as biochemical. The method in brief: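 GST-tagged PDK1 (aa 51-359, 0.75 nM) was coupled to unphosphorylated GST-AKT2 140-467-PIFtide (10 nM) and 100 nM FAM-crosstide at 40 μM ATP, in Tris pH 7.2 buffer, for 30 min at 25 °C. Crosstide phosphorylation was read by IMAP fluorescence polarization (ΔmP) and fitted with a 4-parameter curve.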
On the technique in general: Fluorescence polarisation rises when a labelled molecule tumbles more slowly, as on binding a larger partner.

For assay [1], the system named is phospho-akt (Thr308) in PC-3 cells. Nature of the assay: Inhibition of phospho-akt (Thr308) in PC-3 cells, MSD phospho-akt 308 ELISA kit. It counts as cell-based. The note with it: Homo sapiens, 2 hours, no serum, read-out: EC50. The procedure, abridged:
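PC-3 cells (15,000/well, overnight in 10% FBS medium) treated 2 h with three-fold diluted compounds in serum-free medium; DMSO high and 5 μM wortmannin low controls. Lysates captured on BSA-blocked MSD plates overnight at 4 °C, then 1 h antibody detection at RT; phospho-Akt Thr308 read by MSD electrochemiluminescence.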
In general terms: ELISA stands for enzyme-linked immunosorbent assay.

Setting [2] is: inhibition of P308 Akt in PC-3 cells using MSD.
Setting [3] is: inhibition of phospo-PDK1 in vitro.
Where [4] appears, read: PC-3, 2 h, inhibition of P308 Akt in PC-3 cells, MSD.
The mark [5] stands for this setting: inhibition of P308 Akt in PC-3 cells, MSD.

Each structure is given as a SMILES string. Read-outs that look alike come from different tables or passages of the source.

Sequence of PDK1 (O15530 51-359): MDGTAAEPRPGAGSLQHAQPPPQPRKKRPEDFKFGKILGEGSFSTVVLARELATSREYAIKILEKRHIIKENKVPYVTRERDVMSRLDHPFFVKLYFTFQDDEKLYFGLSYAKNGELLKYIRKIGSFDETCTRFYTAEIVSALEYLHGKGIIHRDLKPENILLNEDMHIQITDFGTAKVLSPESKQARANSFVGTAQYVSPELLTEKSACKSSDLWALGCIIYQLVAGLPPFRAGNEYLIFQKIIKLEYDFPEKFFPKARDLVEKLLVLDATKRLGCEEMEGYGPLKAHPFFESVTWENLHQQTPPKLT

On PDK1 (inhibition of PDK1 in vitro), `C[C@H](NC(=O)c1cc(C#N)cnc1NCc1ccc(-c2cnc(N)c(C(=O)NCCN3CCOCC3)n2)cc1)c1ccc(F)cc1` [Example 214, (S)-3-amino-6-(4-((5-cyano-3-(1-(4-fluorophenyl)ethylcarbamoyl)pyridin-2-ylamino)methyl)phenyl)-N-(2-morpholinoethyl) pyrazine-2-carboxamide] yielded an IC50 below 0.1 µM. Besides, in assay [1] (setting [2]), the half-maximal effective concentration (EC50) was below 1 µM.
The like results for `C[C@H](NC(=O)c1cc(C#N)cnc1NCc1ccc(-c2cnc(NCCN(C)C)cn2)cc1)c1ccc(F)cc1` [Example 226, 5-Cyano-2-{4-[5-(2-dimethylamino-ethylamino)-pyrazin-2-yl]-benzylamino}-N-[(S)-1-(4-fluoro-phenyl)-ethyl]-nicotinamide] were, in that order, above 5 µM and above 10 µM.
In turn, `N#Cc1cnc(NCc2ccc(Oc3cccnc3N)cc2)c(C(=O)NCc2ccc(F)c(F)c2)c1` [Example 313, 2-(4-(2-aminopyridin-3-yloxy)benzylamino)-5-cyano-N-(3,4-difluorobenzyl) nicotinamide] had an IC50 against PDK1 (inhibition of PDK1 in vitro) above 5 µM. Besides, the EC50 in assay [1] (setting [2]) was above 10 µM.
Consider `C[C@@H](Nc1ncc(C(F)(F)F)cc1C(=O)Nc1ccc(F)cc1)c1ccc(-c2cn(C)c3ncnc(N)c23)cc1` [Example 403, (R)-2-(1-(4-(4-amino-7-methyl-7H-pyrrolo[2,3-d]pyrimidin-5-yl)phenyl)ethylamino)-N-(4-fluoro-phenyl)-5-(trifluoromethyl) nicotinamide], for which, at PDK1 (inhibition of PDK1 in vitro), the IC50 is below 0.1 µM. For the same molecule, the EC50 in assay [1] (setting [2]) is 1 to 10 µM.
The matching figures for `CC(C)(O)Cn1cc(-c2ccc(CNc3ncc(C(F)(F)F)cc3C(=O)Nc3ccc(F)cc3)cc2)c2c(N)ncnc21` [Example 405, 2-(4-(4-amino-7-(2-hydroxy-2-methylpropyl)-7H-pyrrolo[2,3-d]pyrimidin-5-yl)benzylamino)-N-(4-fluorophenyl)-5-(trifluoromethyl)nicotinamide]: below 0.1 µM and 1 to 10 µM.
On PDK1 (setting [3]), `CC(C)Oc1cc(CNc2ncccc2C(=O)NCc2ccc(F)c(F)c2)cc(-c2ccc3ncccc3c2)c1` [Example 5.4, N-(3,4-difluorobenzyl)-2-(3-isopropoxy-5-(quinolin-6-yl)benzylamino) nicotinamide] returned an IC50 of 1 to 5 µM. Also, the 50% effective concentration (EC50) in assay [1] (setting [4]) is above 10 µM.
Turning to `Nc1ncc(-c2ccc(CNc3ncc(C(F)(F)F)cc3C(=O)Nc3ccc(F)cc3)cc2)nc1N1CCC[C@@H](N)C1` [Example 189, 2-{4-[5-Amino-6-((R)-3-amino-piperidin-1-yl)-pyrazin-2-yl]-benzylamino}-N-(4-fluoro-phenyl)-5-trifluoromethyl-nicotinamide], at PDK1 (inhibition of PDK1 in vitro), the IC50 was below 0.1 µM. For the same molecule, the EC50 in assay [1] (setting [2]) was 1 to 10 µM.
The molecule `CC(C)c1ccc(NC(=O)c2cc(C(F)(F)F)cnc2NCc2ccc(-c3cnc4[nH]nc(N)c4c3)cc2)cc1` [Example 280, 2-(4-(3-amino-1H-pyrazolo [3,4-b]pyridin-5-yl)benzylamino)-N-(4-isopropylphenyl)-5-(trifluoromethyl)nicotinamide] gave a half-inhibitory concentration (IC50) against PDK1 (inhibition of PDK1 in vitro) of 0.1 to 1 µM. Moreover, the EC50 in assay [1] (setting [2]) lay within 1 to 10 µM.
`Cc1nc[nH]c1/C=C1\C(=O)Nc2cc(/C=C/CNc3ncccc3C(=O)NCc3ccc(F)c(F)c3)ccc21` [Example 15.7, N-(3,4-Difluoro-benzyl)-2-((E)-3-{3-[1-(5-methyl-3H-imidazol-4-yl)-meth-(Z)-ylidene]-2-oxo-2,3-dihydro-1H-indol-6-yl}-allylamino)-nicotinamide] displayed an IC50 on PDK1 (setting [3]) below 0.1 µM. In addition, in assay [1] (setting [5]), the EC50 is below 1 µM.
On PDK1 (inhibition of PDK1 in vitro), `CNc1ccc(-c2ccc(CNc3ncc(C#N)cc3C(=O)N[C@@H](C)c3ccc(F)cc3)cc2)cn1` [Example 141] returned an IC50 below 0.1 µM. Further, the EC50 in assay [1] (setting [2]) lay in the range of 1 to 10 µM.
On PDK1 (setting [3]), `CCS(=O)(=O)Nc1cnc(NCc2ccc(-c3ccc4ncnc(N)c4c3)s2)c(C(=O)NCc2ccc(F)c(F)c2)c1` [Example 8.6.2, 2-({[5-(4-aminoquinazolin-6-yl)thiophen-2-yl]methyl}amino)-N-(3,4-difluorobenzyl)-5-[(ethylsulfonyl)amino] pyridine-3-carboxamide] had an IC50 of 0.1 to 1 µM. Also, in assay [1] (setting [4]), the concentration for a half-maximal effect (EC50) was below 1 µM.
`Nc1n[nH]c2ncc(-c3ccc(CNc4ncc(C(F)(F)F)cc4C(=O)NC4CCC4)cc3)cc12` [Example 299, 2-(4-(3-amino-1H-pyrazolo [3,4-b]pyridin-5-yl)benzylamino)-N-cyclobutyl-5-(trifluoromethyl)nicotinamide] showed a half-maximal inhibitory concentration (IC50) against PDK1 (inhibition of PDK1 in vitro) below 0.1 µM. Also, the EC50 in assay [1] (setting [2]) lay within 1 to 10 µM.
With `C[C@H](NC(=O)c1cc(S(N)(=O)=O)cnc1NCc1ccc(-c2ccc3ncnc(N)c3c2)s1)c1ccc(F)c(F)c1` [Example 8.7.3, 2-({[5-(4-aminoquinazolin-6-yl)thiophen-2-yl]methyl}amino)-N-[(1S)-1-(3,4-difluorophenyl)ethyl]-5-sulfamoylpyridine-3-carboxamide], on PDK1 (setting [3]), the IC50 is below 0.1 µM. Besides, the EC50 in assay [1] (setting [5]) lay within 1 to 10 µM.
`C[C@H](NC(=O)c1cc(C#N)cnc1NCc1cnc(-c2cnc3[nH]ncc3c2)s1)c1ccc(F)cc1` [Example 67, 5-Cyano-N-[(S)-1-(4-fluoro-phenyl)-ethyl]-2-{[2-(1H-pyrazolo[3,4-b]pyridin-5-yl)-thiazol-5-ylmethyl]-amino}-nicotinamide] registered a concentration for half-maximal inhibition (IC50) against PDK1 (inhibition of PDK1 in vitro) below 0.1 µM. Further, the EC50 in assay [1] (setting [2]) lay in the range of 1 to 10 µM.
As to `C[C@H](NC(=O)c1cccnc1NCc1cn(-c2ccc3[nH]c(=O)[nH]c3c2)nn1)c1ccc(F)c(F)c1` [Example 9.2, (S)-N-(1-(3,4-difluorophenyl)ethyl)-2-(((1-(2-oxo-2,3-dihydro-1H-benzo[d]imidazol-5-yl)-1H-1,2,3-triazol-4-yl)methyl)amino) nicotinamide], the half-inhibitory concentration (IC50) against PDK1 (setting [3]) was above 5 µM. The concentration for a half-maximal effect (EC50) in assay [1] (setting [5]) is above 10 µM.
`C[C@H](NC(=O)c1cc(C#N)cnc1NCC#Cc1cnc2[nH]ncc2c1)c1ccc(F)cc1` [Example 249, (S)-2-(3-(1H-pyrazolo[3,4-b]pyridin-5-yl)prop-2-ynylamino)-5-cyano-N-(1-(4-fluorophenyl)ethyl)nicotinamide] had an IC50 against PDK1 (inhibition of PDK1 in vitro) above 5 µM. For the same molecule, the EC50 in assay [1] (setting [2]) is above 10 µM.
On PDK1 (setting [3]), `COCCNc1ncnc2ccc(-c3ccc(CNc4ncccc4C(=O)N[C@@H](C)c4ccc(F)c(F)c4)s3)cc12` [Example 4.33] gave an IC50 below 0.1 µM. Further, the concentration giving a half-maximal response (EC50) in assay [1] (setting [5]) lay in the range of 1 to 10 µM.
As for `Nc1n[nH]c2ncc(-c3ccc(CNc4ncc(C(F)(F)F)cc4C(=O)N[C@@H](CO)c4ccc(Br)cc4)cc3)cc12` [Example 283, (R)-2-(4-(3-amino-1H-pyrazolo [3,4-b]pyridin-5-yl)benzylamino)-N-(1-(4-bromophenyl)-2-hydroxyethyl)-5-(trifluoromethyl)nicotinamide], at PDK1 (inhibition of PDK1 in vitro), the IC50 was above 5 µM. Also, the concentration giving a half-maximal response (EC50) in assay [1] (setting [2]) was 1 to 10 µM.
Molecule `C[C@H](NC(=O)c1cccnc1NCc1ccc(-c2ccc3ncc4[nH]c(=O)n(C)c4c3c2)s1)c1ccc(F)cc1` [Example 2.16, (S)-N-(1-(4-fluorophenyl)ethyl)-2-(((5-(1-methyl-2-oxo-2,3-dihydro-1H-imidazo[4,5-c]quinolin-8-yl)thiophen-2-yl)methyl)amino) nicotinamide] came in with an IC50 against PDK1 (setting [3]) above 5 µM. The concentration giving a half-maximal response (EC50) in assay [1] (setting [5]) was above 10 µM.
The molecule `Nc1ncnc2ccc(-c3ccc(CNc4nc5ccccc5cc4C(=O)NCc4ccc(F)c(F)c4)s3)cc12` [Ex. 8.14.1, 2-({[5-(4-aminoquinazolin-6-yl)thiophen-2-yl]methyl}amino)-N-(3,4-difluorobenzyl) quinoline-3-carboxamide] registered a half-inhibitory concentration (IC50) against PDK1 (setting [3]) below 0.1 µM. Also, in assay [1] (setting [5]), the EC50 is below 1 µM.

For orientation: IC50 means the concentration at which inhibition is half-maximal. Lower therefore signals higher potency. By EC50 is commonly meant the midpoint of the concentration-response curve.
